Values after ≈ are worked out from the molar mass of the structure shown.
Tests used:
ABL = ABL (Homo sapiens, UniProt P00519); assay: Off-chip mobility-shift kinase assay (Caliper LABCHIP), ABL
Thermodynamic solubility = assay type: physicochemical; details: aqueous buffer, thermodynamic from solid; phosphate buffered saline, pH 7.4; ambient temperature overnight
Protocol: Test compound (2.5 mg of solid; n=1) is weighed in a clear glass vial and buffer (0.5 mL) is added (phosphate buffered saline, pH 7.4). The solution is agitated at ambient temperature overnight using a vial roller system. […] Duplicate aliquots (50 μL) are sampled from the filtrate and diluted with one volume of 0.1 N hydrochloric acid and methanol (1:1 v/v) before analysis by HPLC-UV. […] The concentration of test compound in the filtrate is quantified relative to the concentration standard.
Analysis is performed using a gradient HPLC-UV system with a total cycle time of six minutes.

PDGFRβ = PDGFRβ (Homo sapiens, UniProt P09619); assay: Off-chip mobility-shift kinase assay (Caliper LABCHIP), PDGFR
PDGFRβ, sequence (P09619 33-1106): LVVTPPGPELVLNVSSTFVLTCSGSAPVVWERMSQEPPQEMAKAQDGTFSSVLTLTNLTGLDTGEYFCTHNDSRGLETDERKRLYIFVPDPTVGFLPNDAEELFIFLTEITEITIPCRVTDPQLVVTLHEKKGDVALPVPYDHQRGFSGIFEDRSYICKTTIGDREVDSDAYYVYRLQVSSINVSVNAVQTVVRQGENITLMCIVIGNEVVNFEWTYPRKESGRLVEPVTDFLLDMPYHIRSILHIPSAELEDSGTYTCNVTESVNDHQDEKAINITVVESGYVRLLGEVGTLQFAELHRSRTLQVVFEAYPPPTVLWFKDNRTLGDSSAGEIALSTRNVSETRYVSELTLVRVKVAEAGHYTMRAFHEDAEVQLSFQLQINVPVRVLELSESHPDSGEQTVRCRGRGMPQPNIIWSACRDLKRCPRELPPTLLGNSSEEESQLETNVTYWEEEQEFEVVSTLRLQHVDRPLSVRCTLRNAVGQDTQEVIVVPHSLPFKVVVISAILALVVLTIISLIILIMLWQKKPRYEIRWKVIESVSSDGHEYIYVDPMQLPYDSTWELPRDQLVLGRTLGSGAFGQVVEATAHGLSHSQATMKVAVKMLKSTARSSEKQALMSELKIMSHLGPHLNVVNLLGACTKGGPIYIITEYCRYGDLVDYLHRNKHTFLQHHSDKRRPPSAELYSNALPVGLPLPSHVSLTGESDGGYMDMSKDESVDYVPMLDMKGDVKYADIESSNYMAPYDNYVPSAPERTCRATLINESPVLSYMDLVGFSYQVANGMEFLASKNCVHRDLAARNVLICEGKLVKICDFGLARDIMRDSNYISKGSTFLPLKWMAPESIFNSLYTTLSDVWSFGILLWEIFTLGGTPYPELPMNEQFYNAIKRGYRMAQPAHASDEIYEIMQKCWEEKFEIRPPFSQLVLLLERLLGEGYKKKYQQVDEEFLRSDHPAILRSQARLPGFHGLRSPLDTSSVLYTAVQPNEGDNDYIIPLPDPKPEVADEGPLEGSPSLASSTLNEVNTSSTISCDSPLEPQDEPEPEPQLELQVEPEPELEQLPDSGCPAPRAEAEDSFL

cKIT = cKIT (Homo sapiens, UniProt P10721); assay: Off-chip mobility-shift kinase assay (Caliper LABCHIP), C-kit
cKIT, sequence (P10721 26-976): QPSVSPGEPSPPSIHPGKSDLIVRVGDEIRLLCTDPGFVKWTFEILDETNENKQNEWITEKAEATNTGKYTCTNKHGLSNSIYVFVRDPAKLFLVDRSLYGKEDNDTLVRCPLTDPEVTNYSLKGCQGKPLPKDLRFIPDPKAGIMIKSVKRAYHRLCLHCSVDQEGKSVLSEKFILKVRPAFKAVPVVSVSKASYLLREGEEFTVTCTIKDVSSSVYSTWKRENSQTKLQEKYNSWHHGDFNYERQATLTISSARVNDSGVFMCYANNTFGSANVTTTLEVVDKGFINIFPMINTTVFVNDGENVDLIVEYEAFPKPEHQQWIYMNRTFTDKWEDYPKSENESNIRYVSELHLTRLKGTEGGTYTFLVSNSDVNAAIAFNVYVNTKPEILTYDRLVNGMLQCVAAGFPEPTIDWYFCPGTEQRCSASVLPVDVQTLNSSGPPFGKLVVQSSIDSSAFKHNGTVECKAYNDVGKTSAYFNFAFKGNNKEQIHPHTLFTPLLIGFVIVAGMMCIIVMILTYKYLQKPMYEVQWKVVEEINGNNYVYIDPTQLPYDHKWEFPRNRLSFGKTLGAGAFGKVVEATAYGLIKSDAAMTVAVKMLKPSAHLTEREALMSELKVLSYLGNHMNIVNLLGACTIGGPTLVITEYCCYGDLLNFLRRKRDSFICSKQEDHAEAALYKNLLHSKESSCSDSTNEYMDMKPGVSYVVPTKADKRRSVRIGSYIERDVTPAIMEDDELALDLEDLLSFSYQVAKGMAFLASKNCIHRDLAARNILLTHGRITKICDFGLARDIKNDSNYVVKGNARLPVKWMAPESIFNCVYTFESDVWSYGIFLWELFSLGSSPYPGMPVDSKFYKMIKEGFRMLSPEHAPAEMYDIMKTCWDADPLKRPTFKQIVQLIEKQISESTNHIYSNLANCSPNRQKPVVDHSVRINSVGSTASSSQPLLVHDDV

[1] = Caco-2 permeability (bi-directional; pH 7.4/pH 7.4); assay type: in vitro ADME; details: human
Protocol: Caco-2 cells are used as an in vitro model of the human intestinal epithelium and permit assessment of the intestinal permeability of potential drugs. Test compound is added to either the apical or basolateral side of a confluent monolayer of Caco-2 cells and permeability is measured by monitoring the appearance of the test compound on the opposite side of the membrane using LC-MS/MS. Apparent permeability (Papp) coefficients, efflux ratio for the test compound and recovery values were determined.
To measure the permeability of test compound in the apical to basolateral (A-B) and basolateral to apical (B-A) direction across Caco-2 cells.
Caco-2 cells obtained from the ATCC are used between passage numbers 40-60. Cells are seeded on to Millipore Multiscreen Caco-2 plates at 1×10^5 cells/cm^2. They are cultured for 20 days in DMEM and media is changed every two or three days. On day 20 the permeability study is performed.
On day 20, the monolayers are prepared by rinsing both basolateral and apical surfaces twice with HBSS at 37° C. Cells are then incubated with HBSS in both apical and basolateral compartments for 40 min to stabilize physiological parameters. HBSS is then removed from the apical compartment and replaced with test compound dosing solutions. […] The fluorescent integrity marker lucifer yellow is also included in the dosing solution. Analytical standards are made from dosing solutions. The apical compartment inserts are then placed into ‘companion’ plates containing fresh HBSS. For basolateral to apical (B-A) permeability determination the experiment is initiated by replacing buffer in the inserts then placing them in companion plates containing dosing solutions. At 120 minutes the companion plate is removed and apical and basolateral samples diluted for analysis by LC-MS/MS. Test compound permeability was assessed in duplicate. On each plate, compounds of known permeability characteristics were run as controls.
Test and control compounds were quantified by LC-MS/MS cassette analysis using a 5-point calibration with appropriate dilution of the samples. Cyprotex generic analytical conditions were used. The starting concentration (C0) and experimental recovery were calculated from both apical and basolateral compartment concentrations.
The integrity of the monolayers throughout the experiment was checked by monitoring lucifer yellow permeation using fluorimetric analysis. Lucifer yellow permeation is low if monolayers have not been damaged. […] If lucifer yellow Papp values are above QC limits in both replicate wells for a test compound, the compound was re-tested.
Data Analysis: The permeability coefficient for each compound (Papp) is calculated from the following equation: […]
wherein dQ/dt is the rate of permeation of the drug across the cells, C0 is the donor compartment concentration at time zero and A is the area of the cell monolayer. C0 is obtained from analysis of donor and receiver compartments at the end of the incubation period. It is assumed that all of the test compound measured after 120 minutes incubation was initially present in the donor compartment at 0 minutes. An efflux ratio (ER) is derived as follows:
Talinolol (a known P-gp substrate) is also included as a control compound to assess whether functional P-gp is present in the Caco-2 cell monolayer.

ABL, sequence (P00519 whole entry): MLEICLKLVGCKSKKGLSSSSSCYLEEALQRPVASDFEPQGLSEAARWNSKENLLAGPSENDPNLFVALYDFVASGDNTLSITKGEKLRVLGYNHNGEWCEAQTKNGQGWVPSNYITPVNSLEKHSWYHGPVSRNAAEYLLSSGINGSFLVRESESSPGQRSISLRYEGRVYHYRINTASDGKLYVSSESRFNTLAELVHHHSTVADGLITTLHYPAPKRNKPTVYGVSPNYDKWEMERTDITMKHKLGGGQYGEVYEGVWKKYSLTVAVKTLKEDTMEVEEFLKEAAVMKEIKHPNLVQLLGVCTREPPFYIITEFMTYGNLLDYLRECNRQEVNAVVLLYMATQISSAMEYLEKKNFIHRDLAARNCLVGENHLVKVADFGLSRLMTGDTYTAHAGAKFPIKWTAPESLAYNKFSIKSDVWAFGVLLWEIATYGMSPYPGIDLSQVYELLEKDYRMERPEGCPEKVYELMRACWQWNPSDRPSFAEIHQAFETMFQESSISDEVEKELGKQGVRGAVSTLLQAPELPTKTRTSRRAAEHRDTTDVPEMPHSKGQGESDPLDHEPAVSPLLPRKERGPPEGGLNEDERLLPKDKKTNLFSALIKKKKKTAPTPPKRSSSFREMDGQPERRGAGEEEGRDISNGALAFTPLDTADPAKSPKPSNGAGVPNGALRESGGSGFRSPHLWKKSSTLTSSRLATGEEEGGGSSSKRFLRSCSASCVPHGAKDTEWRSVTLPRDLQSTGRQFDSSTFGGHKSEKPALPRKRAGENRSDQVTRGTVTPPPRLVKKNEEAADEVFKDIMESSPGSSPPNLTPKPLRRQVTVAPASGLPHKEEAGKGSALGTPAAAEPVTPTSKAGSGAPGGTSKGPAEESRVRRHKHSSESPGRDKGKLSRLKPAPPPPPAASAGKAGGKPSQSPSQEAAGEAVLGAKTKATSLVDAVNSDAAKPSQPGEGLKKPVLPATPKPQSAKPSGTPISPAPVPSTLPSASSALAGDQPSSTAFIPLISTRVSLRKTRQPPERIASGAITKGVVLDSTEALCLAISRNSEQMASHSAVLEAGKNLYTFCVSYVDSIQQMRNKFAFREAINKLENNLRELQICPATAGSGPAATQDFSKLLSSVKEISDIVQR

IC50 (ABL): ≥ 3000 nM | ABL AVG % Activity at 1.0E−06 (ABL; concentration 1.0E−06, imatinib-corresponding compounds): 74% | ABL AVG % Activity at 1.0E−07 (ABL; concentration 1.0E−07, imatinib-corresponding compounds): 86% | ABL AVG % Activity at 1.0E−08 (ABL; concentration 1.0E−08, imatinib-corresponding compounds): 95% | ABL AVG % Activity at 1.0E−09 (ABL; concentration 1.0E−09, imatinib-corresponding compounds): 97% | ABL AVG % Activity at 1.0E−10 (ABL; concentration 1.0E−10, imatinib-corresponding compounds): 96% | ABL AVG % Activity at 3.0E−06 (ABL; concentration 3.0E−06, imatinib-corresponding compounds): 66% | ABL AVG % Activity at 3.0E−07 (ABL; concentration 3.0E−07, imatinib-corresponding compounds): 80% | ABL AVG % Activity at 3.0E−08 (ABL; concentration 3.0E−08, imatinib-corresponding compounds): 92% | ABL AVG % Activity at 3.0E−09 (ABL; concentration 3.0E−09, imatinib-corresponding compounds): 96% | ABL AVG % Activity at 3.0E−10 (ABL; concentration 3.0E−10, imatinib-corresponding compounds): 96% | solubility (Thermodynamic solubility): 3400 µg/mL (≈ 5.27 mM) | IC50 (PDGFRβ): 220 nM | PDGFR AVG % Activity at 1.0E−06 (PDGFRβ; concentration 1.0E−06): 9% | PDGFR AVG % Activity at 1.0E−07 (PDGFRβ; concentration 1.0E−07): 62% | PDGFR AVG % Activity at 1.0E−08 (PDGFRβ; concentration 1.0E−08): 94% | PDGFR AVG % Activity at 1.0E−09 (PDGFRβ; concentration 1.0E−09): 90% | PDGFR AVG % Activity at 1.0E−10 (PDGFRβ; concentration 1.0E−10): 92% | PDGFR AVG % Activity at 3.0E−06 (PDGFRβ; concentration 3.0E−06): 0% | PDGFR AVG % Activity at 3.0E−07 (PDGFRβ; concentration 3.0E−07): 37% | PDGFR AVG % Activity at 3.0E−08 (PDGFRβ; concentration 3.0E−08): 85% | PDGFR AVG % Activity at 3.0E−09 (PDGFRβ; concentration 3.0E−09): 100% | PDGFR AVG % Activity at 3.0E−10 (PDGFRβ; concentration 3.0E−10): 92% | IC50 (cKIT): 440 nM | C-kit AVG % Activity at 1.0E−05 (cKIT; concentration 1.0E−05): 1% | C-kit AVG % Activity at 1.0E−06 (cKIT; concentration 1.0E−06): 28% | C-kit AVG % Activity at 1.0E−07 (cKIT; concentration 1.0E−07): 82% | C-kit AVG % Activity at 1.0E−08 (cKIT; concentration 1.0E−08): 92% | C-kit AVG % Activity at 3.0E−05 (cKIT; concentration 3.0E−05): 0% | C-kit AVG % Activity at 3.0E−06 (cKIT; concentration 3.0E−06): 9% | C-kit AVG % Activity at 3.0E−07 (cKIT; concentration 3.0E−07): 59% | C-kit AVG % Activity at 3.0E−08 (cKIT; concentration 3.0E−08): 91% | C-kit AVG % Activity at 3.0E−09 (cKIT; concentration 3.0E−09): 96% | Papp A→B at 120 min, 10 μM ([1]; Caco-2, pH 7.4, read-out: Permeability (cm^2/s × 10^6)): 0.05 ± 0.02 ×10⁻⁶ cm/s | efflux ratio at 120 min, 10 μM ([1]; Caco-2, ratio of B-A and A-B permeabilities, 10 μM, 120 minutes): 560
SMILES: COCCOCCOCCOCCOCCNCc1ccc(C(=O)Nc2ccc(C)c(Nc3nccc(-c4cccnc4)n3)c2)cc1 [mPEG5-N-Imatinib]

— US20120094998A1, “Oligomer-Protein Tyrosine Kinase Inhibitor Conjugates” (Nektar Therapeutics, priority 2009, published 2012)
